Measurements: patent publication US20250145564A1, “SULFONYLUREA COMPOUND, PREPARATION METHOD THEREFOR, AND APPLICATION THEREOF” (SHANGHAI INSTITUTE OF MATERIA MEDICA, CHINESE ACADEMY OF …, priority 2021, published 2025)

Columns and labels:
[1] = target: T1, sEH (human recombinant) (Homo sapiens, UniProt P34913); test: sEH inhibition assay (fluorescence);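 further: enzyme preincubated with compound 30 min at 25 °C, then substrate added and fluorescence read after 15 min at 25 °C, 320 nm and 460 nm, versus DMSO negative control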
T1 sequence (P34913 1-555): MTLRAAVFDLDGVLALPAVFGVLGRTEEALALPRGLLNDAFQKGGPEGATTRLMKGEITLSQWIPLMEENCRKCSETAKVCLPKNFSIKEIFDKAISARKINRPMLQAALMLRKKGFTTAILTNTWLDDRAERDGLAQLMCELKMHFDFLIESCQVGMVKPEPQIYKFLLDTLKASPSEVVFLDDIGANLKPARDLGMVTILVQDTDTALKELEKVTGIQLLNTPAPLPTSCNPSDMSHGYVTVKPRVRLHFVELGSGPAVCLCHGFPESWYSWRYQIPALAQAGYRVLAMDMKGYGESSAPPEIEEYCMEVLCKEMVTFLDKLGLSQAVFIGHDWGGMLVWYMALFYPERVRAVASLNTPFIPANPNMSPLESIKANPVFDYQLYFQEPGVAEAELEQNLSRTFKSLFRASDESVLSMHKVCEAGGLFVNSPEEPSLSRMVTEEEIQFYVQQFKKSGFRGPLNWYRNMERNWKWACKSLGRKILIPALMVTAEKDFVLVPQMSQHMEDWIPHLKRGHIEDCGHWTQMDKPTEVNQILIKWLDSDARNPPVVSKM
Method: sEH Assay Buffer was purchased from Cayman Chemical; sEH (human recombinant) was purchased from Cayman Chemical; sEH substrate was purchased from Cayman Chemical. The working solution of 20% DMSO for the compounds was prepared by mixing dimethyl sulfoxide with water in a volume ratio of 1:4, and shaking to mix well.
sEH Assay Buffer (10×), SEH (human recombinant) and sEH substrate were thawed on ice.
The sEH Assay Buffer (lux) was prepared into a 1×sEH Assay Buffer with deionized water. 12 μL of sEH was added with 588 µL of 1× Assay Buffer to be diluted 50 times to obtain a sEH working solution. 180 µL of 1× Assay Buffer was added into the corresponding wells; the sEH working solution was added to the corresponding wells at 5 μL/well; the working solution of 20% DMSO for the compounds was added into the corresponding wells at 5 μL/well, and blank wells and negative control wells added with an equal amount of DMSO were set. After centrifuged at 1000 rpm for 1 minute, the wells were incubated at 25° C. for 30 minutes. After incubation, the substrate was added into the 96-wells plate at 5 μL/well and the plate was centrifuged at 1000 rpm for 1 minute. After incubation at 25° C. for 15 minutes, fluorescence values were read at emission wavelengths of 320 nm and 460 nm.

[2] = system: PE induced cardiomyocyte remodeling (AC16); test: Inhibitory effect on PE induced myocardial injury (BNP mRNA); type: cell-based, human; settings: PE 100 μM, 24 hours; compounds 0.1, 0.5, 1 μM; glimepiride 10 μM
Method: (§1) Biomaterial sources: Human cardiomyocyte cell line AC16 was purchased from ATCC, USA. Phenylephrine (PE) was purchased from Sigma Company. AUDA was purchased from Cayman Company.
PE was dissolved in disinfected deionized water with a working concentration of 100 μM. The compounds were dissolved in DMSO, and the working concentrations were 0.1, 0.5, 1 μM for the compounds of the present invention, 10 μM for glimepiride, and 1 μM for AUDA. The incubation time was 24 hours.
(§2) Total RNA was extracted using Invitrogen's Trizol reagent, then cDNA was obtained using TAKARA's reverse transcription kit, and finally the mRNA content of related genes was amplified with specific primers.
(§3) After 24 hours of incubation, cardiomyocytes were collected to perform the above detection.

[3] = system: mice with chronic heart failure (TAC); test: Anti-heart failure effect in vivo, TAC mouse model; settings: for impaired cardiac function (EF value, FS value, dp/dt reduced by TAC): daily gavage 0.2 mg/kg and 0.4 mg/kg; for cross-sectional area of cardiomyocytes, HE staining (myocardial hypertrophy) / positive area of Sirius red staining (myocardial fibrosis): daily gavage eight weeks, I-1, I-23 0.2 and 0.4 mg/kg, glimepiride 1.2 mg/kg
Text: (§4) 12-week-old male C57BL/6 mice, which were purchased from Gempharmatech Co., Ltd, were raised in the SPF animal house of Tongji Medical College, Huazhong University of Science and Technology. After one week of acclimatization in the animal house, the mice were subjected to thoracic aortic constriction as the TAC group. Another group of mice were subjected to thoracotomy without ligation of thoracic aorta as Sham group. Meanwhile, AUDA was used as the positive control.
(§5) Cardiac ultrasound detection was performed on a Visual Sonics Vevo 2100 small animal ultrasound imager. The major measurement indicators include heart rate (HR), left ventricular ejection fraction (LVEF), left ventricular fractional shortening (LVFS), left ventricular internal dimension-diastole (LVIDd) and left ventricular internal dimension-systole (LVIDs), and left ventricular posterior wall thickness (LVPWd and LVPWs).
(§6) The detection was performed on a Millar pressure-volume system from Millar Instr Ment PowerLab. After the animals were anesthetized to an appropriate extent, a midline incision was made in the neck, the right common carotid artery was separated, ligated at the distal end and clipped at the proximal end. A V-shaped incision was made on the artery with microscissors, and a microcatheter was inserted to the left ventricle. Signals were recorded through a conduction system to obtain hemodynamic data such as heart rate (HR), left ventricular end diastolic pressure (PED), left ventricular end systolic pressure (PES), maximum rate of decrease in left ventricular pressure (−dp/dtmin), and maximum rate of increase in left ventricular pressure (+dP/dtmax).
(§7) The myocardial tissue was placed in an embedding frame, soaked and fixed in neutral formaldehyde solution, dehydrated, and embedded in paraffin. The paraffin block was then sliced into sections with a thickness of 4 μm on a microtome. The general appearance of the myocardium was observed through HE staining, and the myocardial fibrosis was observed through Sirius red staining.
as §2
(§8) Cardiac ultrasound examination was performed two weeks after TAC surgery. 24 TAC mice with no significant difference in cardiac function were selected and randomly divided into a model group (TAC) and a treatment group (TAC+compound). The model group received no other treatment, while the treatment group received daily gavage (0.2 mg/kg and 0.4 mg/kg for I-1 and I-23 of the present application, and 1.2 mg/kg for glimepiride). Eight weeks later, i.e., at the chronic heart failure phase, the animals were sacrificed, and tissue specimens were collected to perform the above detections.

[4] = target: T2, sEH in cardiomyocytes (AC16) (Homo sapiens, UniProt P34913); test: Inhibition assay on sEH in cardiomyocytes (14,15-EET/DHET ELISA); type: cell-based; settings: AC16, 0.1, 1 and 10 μM, 24 hours; for content of DHET in cardiomyocytes / content of EETs in cardiomyocytes: compared with the control
T2 construct: endogenous in cells; host or cells: AC16 human cardiomyocyte cell line (ATCC)
T2 sequence (P34913 1-555): T1 sequence (P34913 1-555)
Method: as §1
The compounds were dissolved in DMSO. The working concentrations were 0.1, 1 and 10 μM for the compounds of the present invention, 0.1, 1 and 10 μM for glimepiride, and 1 μM for AUDA. The incubation time was 24 hours.
(§9) The ELISA detection kit (BIOTARGET 14,15-EET/DHET ELISA KIT) from Detroit R&D company was used, and the experiment was conducted according to the instructions of the kit.
as §3

[5] = system: mice with chronic heart failure (TAC); test: TAC mouse model, comparison of I-23 and Empagliflozin; type: in vivo; settings: for cardiac hypertrophy (heart photographs, heart weight/tibia length HW/TL) / expression of BNP in mouse cardiomyocytes after TAC / impaired cardiac function (EF value, FS value, LVIDs, dp/dt) / positive area of Sirius red staining (myocardial fibrosis): mice, daily gavage eight weeks, I-23 0.44 mg/kg, Empagliflozin 10 mg/kg
Text: as §4, §5, §6, §7, §2
as §8, with “(0.44” for “(0.2 mg/kg and 0.4”, “for” for “for I-1 and”, “or 10” for “of the present application, and 1.2”, “Empagliflozin).” for “glimepiride).”
This experiment was to compare the ameliorative effects of I-23 and Empagliflozin on chronic heart failure.

[6] = target: T3, sEH in the hearts of mice with chronic heart failure (Mus musculus, UniProt P34914); test: sEH enzymic activity in hearts of TAC mice; type: in vivo; settings: daily gavage 1.2 mg/kg, eight weeks
T3 construct: from tissue; host or cells: heart tissue of male C57BL/6 mice after TAC surgery
T3 sequence (P34914 1-554): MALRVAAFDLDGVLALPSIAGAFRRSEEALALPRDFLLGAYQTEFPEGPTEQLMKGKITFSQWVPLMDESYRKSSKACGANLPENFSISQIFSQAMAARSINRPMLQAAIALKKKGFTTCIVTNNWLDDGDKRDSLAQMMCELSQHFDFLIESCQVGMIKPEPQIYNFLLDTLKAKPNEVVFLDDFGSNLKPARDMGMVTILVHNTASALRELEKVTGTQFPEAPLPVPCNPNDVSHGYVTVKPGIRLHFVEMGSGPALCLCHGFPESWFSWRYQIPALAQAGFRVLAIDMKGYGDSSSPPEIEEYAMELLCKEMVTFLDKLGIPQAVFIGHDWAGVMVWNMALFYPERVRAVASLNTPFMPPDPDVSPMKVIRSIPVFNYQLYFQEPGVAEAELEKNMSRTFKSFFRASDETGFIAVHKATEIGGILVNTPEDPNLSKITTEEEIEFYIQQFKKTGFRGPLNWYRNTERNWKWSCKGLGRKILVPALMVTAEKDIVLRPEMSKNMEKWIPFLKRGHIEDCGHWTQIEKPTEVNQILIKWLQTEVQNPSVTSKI
Method: as §9, §4, §8

[7] = I-23 0.44 mg/kg vs Empagliflozin 10 mg/kg

Row | increase of sEH enzymic activity in the hearts after TAC [6] | inhibitory effect on enzymic activity of sEH in cardiomyocytes ([4]; effect increases as the concentration increases) | Compound | IC50 [1] | BNP expression induced by PE (cardiomyocyte remodeling) [2] | impaired cardiac function (EF value, FS value, dp/dt reduced by TAC) ([3]; eight weeks) | expression of BNP in mouse cardiomyocytes after TAC ([3]; daily gavage 0.2 and 0.4 mg/kg, eight weeks) | cross-sectional area of cardiomyocytes, HE staining (myocardial hypertrophy) [3] | positive area of Sirius red staining (myocardial fibrosis) [3] | content of DHET in cardiomyocytes [4] | content of EETs in cardiomyocytes [4] | effect on cardiac hypertrophy relative to Empagliflozin [5, 7] | effect on impaired cardiac function relative to Empagliflozin [5, 7] | cardiac hypertrophy (heart photographs, heart weight/tibia length HW/TL) [5] | expression of BNP in mouse cardiomyocytes after TAC [5] | impaired cardiac function (EF value, FS value, LVIDs, dp/dt) [5] | positive area of Sirius red staining (myocardial fibrosis) [5] | impaired cardiac function (EF value and dp/dt reduced by TAC) ([3]; daily gavage 1.2 mg/kg, eight weeks)
1 | – | – | CCC1=C(C)CN(C(=O)NCCc2ccc(S(=O)(=O)N(C)C(=O)N[C@H]3CC[C@H](C)CC3)cc2)C1=O [Compound I-1] | 1 to 10 µM | can inhibit this effect | can inhibit this effect | can inhibit this effect | can inhibit this effect | can inhibit this effect | reducing | significantly increase | – | – | – | – | – | – | –
2 | – | – | Cc1ccc(S(=O)(=O)N(C)C(=O)NN2CC3CCCC3C2)cc1 (centres unmarked) [Compound I-4] | 1 to 10 µM | can inhibit this effect | – | – | – | – | reducing | significantly increase | – | – | – | – | – | – | –
3 | – | – | CCC1=C(C)CN(C(=O)NCCc2ccc(S(=O)(=O)NC(=O)N[C@H]3CC[C@H](COC(C)=O)CC3)cc2)C1=O [Compound I-23] | 1 to 10 µM | can inhibit this effect | can inhibit this effect | – | can inhibit this effect | can inhibit this effect | reducing | significantly increase | comparable to that of Empagliflozin | comparable to that of Empagliflozin | reversal effect | can inhibit this effect | can inhibit this effect | can inhibit this effect | –
4 | – | – | OC[C@H]1O[C@@H](c2ccc(Cl)c(Cc3ccc(O[C@H]4CCOC4)cc3)c2)[C@H](O)[C@@H](O)[C@@H]1O [Empagliflozin, reference compound] | – | – | – | – | – | – | – | – | – | – | reversal effect | can inhibit this effect | can inhibit this effect | can inhibit this effect | –
5 | could inhibit this effect | significant inhibitory effect | CCC1=C(C)CN(C(=O)NCCc2ccc(S(=O)(=O)NC(=O)N[C@H]3CC[C@H](C)CC3)cc2)C1=O [glimepiride, reference compound] | – | can inhibit this effect | – | – | can inhibit this effect | can inhibit this effect | – | – | – | – | – | – | – | – | can inhibit this effect
